Measured values: patent US12643882B2, “Inhibitors of human respiratory syncytial virus and metapneumovirus” (priority 2022, dated 2026)
Like-named read-outs stand apart in the source and are kept apart here.

What was measured:
RSV-A2-GFP virus = assay: microbe, parasite or virus in culture; type: cell-based, Human Respiratory Syncytial Virus
Outline: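 Assay-ready frozen Calu-1 cells at 20,000 cells/mL were infected with recombinant RSV-A2-GFP (MOI 1.2) in DMEM with 2% FBS. Cells were exposed to 10-point 3-fold compound dilutions for 96 h at 37° C. GFP-positive cells were counted by imaging, with same-well CellTiter-Glo for cytotoxicity, and IC50 and CC50 came from 4-parameter logistic fits.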

hMPV-GFP virus = assay: microbe, parasite or virus in culture; type: cell-based, human metapneumovirus
Outline: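 VERO cells infected with GFP-expressing hMPV at MOI 1.25 were incubated 48 h at 37 °C with compound in 10-point 3-fold dilutions (typically 40,300–2 nM final). GFP-positive cells were counted by imaging. Same-well CellTiter-Glo gave cytotoxicity, and IC50/CC50 came from 4-parameter logistic fits.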

[1] = Calu-1 cells infected with RSV-A2-GFP, 96 hrs, GFP-expressing cells counted, read-out: RSV EC50
[2] = VERO cells infected with hMPV-GFP, 48 hrs, GFP-expressing cells counted, read-out: hMPV EC50
[3] = human respiratory syncytial virus, Calu-1, 96 h, read-out: RSV EC50, Calu-1 cells infected with RSV-A2-GFP, 96 hrs, GFP-expressing cells counted
[4] = human metapneumovirus, Vero, 48 h, read-out: hMPV EC50, VERO cells infected with hMPV-GFP, 48 hrs, GFP-expressing cells counted

Work on Cc1ccc(-c2cc(C(C)(C)N)cc(O[C@H]3[C@@H]4CN(C(=O)c5sc(-c6ncccn6)nc5C)C[C@@H]43)n2)c(F)c1 [Example 38, ((1R,5S,6s)-6-((4-(2-aminopropan-2-yl)-6-(2-fluoro-4-methylphenyl)pyridin-2-yl)oxy)-3-azabicyclo[3.1.0]hexan-3-yl)(4-methyl-2-(pyrimidin-2-yl)thiazol-5-yl)methanone] yielded an EC50 (RSV-A2-GFP virus; [1]) of less than 10 nM and an EC50 (hMPV-GFP virus; [2]) of 10 to 100 nM.
With Cc1cc(F)ccc1-c1cc(C(C)(C)N)cc(O[C@H]2[C@@H]3CN(C(=O)c4sc(-c5ncccn5)nc4C)C[C@@H]32)n1 [Example 39, ((1R,5S,6s)-6-((4-(2-aminopropan-2-yl)-6-(4-fluoro-2-methylphenyl)pyridin-2-yl)oxy)-3-azabicyclo[3.1.0]hexan-3-yl)(4-methyl-2-(pyrimidin-2-yl)thiazol-5-yl)methanone] the EC50 (RSV-A2-GFP virus; [1]) was less than 10 nM and the EC50 (hMPV-GFP virus; [2]) was 10 to 100 nM.
Cc1cccc(-c2cc(C(C)(C)N)cc(O[C@H]3[C@@H]4CN(C(=O)c5sc(-c6ncccn6)nc5C)C[C@@H]43)n2)c1F [Example 40, ((1R,5S,6s)-6-((4-(2-aminopropan-2-yl)-6-(2-fluoro-3-methylphenyl)pyridin-2-yl)oxy)-3-azabicyclo[3.1.0]hexan-3-yl)(4-methyl-2-(pyrimidin-2-yl)thiazol-5-yl)methanone] was tested, and the EC50 (RSV-A2-GFP virus; [1]) was less than 10 nM and the EC50 (hMPV-GFP virus; [2]) was greater than 100 nM.
With COc1cc(F)ccc1-c1cc(C(C)(C)N)cc(O[C@H]2[C@@H]3CN(C(=O)c4sc(-c5ncccn5)nc4C)C[C@@H]32)n1 [Example 41, ((1R,5S,6s)-6-((4-(2-aminopropan-2-yl)-6-(4-fluoro-2-methoxyphenyl)pyridin-2-yl)oxy)-3-azabicyclo[3.1.0]hexan-3-yl)(4-methyl-2-(pyrimidin-2-yl)thiazol-5-yl)methanone] the EC50 (RSV-A2-GFP virus; [1]) was less than 10 nM and the EC50 (hMPV-GFP virus; [2]) was greater than 100 nM.
Work on Cc1nc(-c2ncccn2)sc1C(=O)N1C[C@@H]2[C@H](C1)[C@H]2Oc1cc(C(C)(C)N)cc(-c2ccc(F)c3ccccc23)n1 [Example 42, ((1R,5S,6s)-6-((4-(2-aminopropan-2-yl)-6-(4-fluoronaphthalen-1-yl)pyridin-2-yl)oxy)-3-azabicyclo[3.1.0]hexan-3-yl)(4-methyl-2-(pyrimidin-2-yl)thiazol-5-yl)methanone] yielded an EC50 (RSV-A2-GFP virus; [1]) of less than 10 nM and an EC50 (hMPV-GFP virus; [2]) of 10 to 100 nM.
Work on Cc1nc(-c2ncccn2)sc1C(=O)N1C[C@@H]2[C@H](C1)[C@H]2Oc1cc(C(C)(C)N)cc(-c2cc3ccccc3[nH]2)n1 [Example 43, ((1R,5S,6s)-6-((4-(2-aminopropan-2-yl)-6-(1H-indol-2-yl)pyridin-2-yl)oxy)-3-azabicyclo[3.1.0]hexan-3-yl)(4-methyl-2-(pyrimidin-2-yl)thiazol-5-yl)methanone] yielded an EC50 (RSV-A2-GFP virus; [1]) of less than 10 nM and an EC50 (hMPV-GFP virus; [2]) greater than 100 nM.
Molecule Cc1nc(-c2ncccn2)sc1C(=O)N1C[C@@H]2[C@H](C1)[C@H]2Oc1cc(C(C)(C)N)cc(-c2cc3ccccc3n2C)n1 [Example 44, ((1R,5S,6s)-6-((4-(2-aminopropan-2-yl)-6-(1-methyl-1H-indol-2-yl)pyridin-2-yl)oxy)-3-azabicyclo[3.1.0]hexan-3-yl)(4-methyl-2-(pyrimidin-2-yl)thiazol-5-yl)methanone] has an EC50 (RSV-A2-GFP virus; [1]) of less than 10 nM and an EC50 (hMPV-GFP virus; [2]) of 10 to 100 nM.
Cc1nc(-c2ncccn2)sc1C(=O)N1C[C@@H]2[C@H](C1)[C@H]2Oc1cc(C(C)(C)N)cc(C2=CCCCC2)n1 [Example 45, ((1R,5S,6s)-6-((4-(2-aminopropan-2-yl)-6-(cyclohex-1-en-1-yl)pyridin-2-yl)oxy)-3-azabicyclo[3.1.0]hexan-3-yl)(4-methyl-2-(pyrimidin-2-yl)thiazol-5-yl)methanone] gave an EC50 (RSV-A2-GFP virus; [1]) of less than 10 nM and an EC50 (hMPV-GFP virus; [2]) greater than 100 nM.
Cc1nc(-c2ncccn2)sc1C(=O)N1C[C@@H]2[C@H](C1)[C@H]2Oc1cc(C(C)(C)N)cc(C2=CCC3(CCC3)CC2)n1 [Example 48, ((1R,5S,6s)-6-((4-(2-aminopropan-2-yl)-6-(spiro[3.5]non-6-en-7-yl)pyridin-2-yl)oxy)-3-azabicyclo[3.1.0]hexan-3-yl)(4-methyl-2-(pyrimidin-2-yl)thiazol-5-yl)methanone] gave an EC50 (RSV-A2-GFP virus; [1]) of less than 10 nM and an EC50 (hMPV-GFP virus; [2]) greater than 100 nM.
CC(C)(N)c1cc(O[C@H]2[C@@H]3CN(C(=O)c4sc(-c5ncccn5)nc4C(F)F)C[C@@H]32)nc(-c2ccc(F)cc2)c1 [Example 49, ((1R,5S,6s)-6-((4-(2-aminopropan-2-yl)-6-(4-fluorophenyl)pyridin-2-yl)oxy)-3-azabicyclo[3.1.0]hexan-3-yl)(4-(difluoromethyl)-2-(pyrimidin-2-yl)thiazol-5-yl)methanone] showed an EC50 (RSV-A2-GFP virus; [3]) of less than 10 nM and an EC50 (hMPV-GFP virus; [4]) of 10 to 100 nM.
In the case of Cn1nc(-c2cccc(F)n2)cc1C(=O)N1C[C@@H]2[C@H](C1)[C@H]2Oc1cc(C(C)(C)N)cc(-c2ccc(F)cc2)n1 [Example 50, ((1R,5S,6s)-6-((4-(2-aminopropan-2-yl)-6-(4-fluorophenyl)pyridin-2-yl)oxy)-3-azabicyclo[3.1.0]hexan-3-yl)(3-(6-fluoropyridin-2-yl)-1-methyl-1H-pyrazol-5-yl)methanone], the EC50 (RSV-A2-GFP virus; [3]) is reported as less than 10 nM and the EC50 (hMPV-GFP virus; [4]) is reported as 10 to 100 nM.
Cc1cccc(-c2cc(C(=O)N3C[C@@H]4[C@H](C3)[C@H]4Oc3cc(C(C)(C)N)cc(-c4ccc(F)cc4)n3)n(C)n2)n1 [Example 51, ((1R,5S,6s)-6-((4-(2-aminopropan-2-yl)-6-(4-fluorophenyl)pyridin-2-yl)oxy)-3-azabicyclo[3.1.0]hexan-3-yl)(1-methyl-3-(6-methylpyridin-2-yl)-1H-pyrazol-5-yl)methanone] was tested, and the EC50 (RSV-A2-GFP virus; [1]) was less than 10 nM and the EC50 (hMPV-GFP virus; [2]) was greater than 100 nM.
Work on Cn1nc(-c2ncccn2)cc1C(=O)N1C[C@@H]2[C@H](C1)[C@H]2Oc1cc(C(C)(C)N)cc(-c2ccc(F)cc2)n1 [Example 52, ((1R,5S,6s)-6-((4-(2-aminopropan-2-yl)-6-(4-fluorophenyl)pyridin-2-yl)oxy)-3-azabicyclo[3.1.0]hexan-3-yl)(1-methyl-3-(pyrimidin-2-yl)-1H-pyrazol-5-yl)methanone] yielded an EC50 (RSV-A2-GFP virus; [3]) of less than 10 nM and an EC50 (hMPV-GFP virus; [4]) greater than 100 nM.
Cn1nc(-c2ncccn2)c(Cl)c1C(=O)N1C[C@@H]2[C@H](C1)[C@H]2Oc1cc(C(C)(C)N)cc(-c2ccc(F)cc2)n1 [Example 53, ((1R,5S,6s)-6-((4-(2-aminopropan-2-yl)-6-(4-fluorophenyl)pyridin-2-yl)oxy)-3-azabicyclo[3.1.0]hexan-3-yl)(4-chloro-1-methyl-3-(pyrimidin-2-yl)-1H-pyrazol-5-yl)methanone] showed an EC50 (RSV-A2-GFP virus; [3]) of less than 10 nM and an EC50 (hMPV-GFP virus; [4]) greater than 100 nM.
Cn1nc(-c2ncccn2)c(F)c1C(=O)N1C[C@@H]2[C@H](C1)[C@H]2Oc1cc(C(C)(C)N)cc(-c2ccc(F)cc2)n1 [Example 54, ((1R,5S,6s)-6-((4-(2-aminopropan-2-yl)-6-(4-fluorophenyl)pyridin-2-yl)oxy)-3-azabicyclo[3.1.0]hexan-3-yl)(4-fluoro-1-methyl-3-(pyrimidin-2-yl)-1H-pyrazol-5-yl)methanone] gave an EC50 (RSV-A2-GFP virus; [3]) of less than 10 nM and an EC50 (hMPV-GFP virus; [4]) greater than 100 nM.
Cn1nc(-c2ncccn2)cc1C(=O)N1C[C@@H]2[C@H](C1)[C@H]2Oc1cc(C(C)(C)N)cc(-c2ccc(F)c(F)c2)n1 [Example 55, ((1R,5S,6s)-6-((4-(2-aminopropan-2-yl)-6-(3,4-difluorophenyl)pyridin-2-yl)oxy)-3-azabicyclo[3.1.0]hexan-3-yl)(1-methyl-3-(pyrimidin-2-yl)-1H-pyrazol-5-yl)methanone] showed an EC50 (RSV-A2-GFP virus; [3]) of less than 10 nM and an EC50 (hMPV-GFP virus; [4]) greater than 100 nM.
With Cn1nc(-c2ncccn2)cc1C(=O)N1C[C@@H]2[C@H](C1)[C@H]2Oc1cc(C(C)(C)N)cc(-c2ccc(F)c(Cl)c2)n1 [Example 56, ((1R,5S,6s)-6-((4-(2-aminopropan-2-yl)-6-(3-chloro-4-fluorophenyl)pyridin-2-yl)oxy)-3-azabicyclo[3.1.0]hexan-3-yl)(1-methyl-3-(pyrimidin-2-yl)-1H-pyrazol-5-yl)methanone] the EC50 (RSV-A2-GFP virus; [1]) was less than 10 nM and the EC50 (hMPV-GFP virus; [2]) was greater than 100 nM.
Cn1nc(-c2ncccn2)cc1C(=O)N1C[C@@H]2[C@H](C1)[C@H]2Oc1cc(C(C)(C)N)cc(-c2ccc(F)cc2Cl)n1 [Example 57, ((1R,5S,6s)-6-((4-(2-aminopropan-2-yl)-6-(2-chloro-4-fluorophenyl)pyridin-2-yl)oxy)-3-azabicyclo[3.1.0]hexan-3-yl)(1-methyl-3-(pyrimidin-2-yl)-1H-pyrazol-5-yl)methanone] showed an EC50 (RSV-A2-GFP virus; [1]) of less than 10 nM and an EC50 (hMPV-GFP virus; [2]) greater than 100 nM.
Molecule Cn1nc(-c2ncccn2)cc1C(=O)N1C[C@@H]2[C@H](C1)[C@H]2Oc1cc(C(C)(C)N)cc(-c2ccc(Cl)cc2)n1 [Example 58, ((1R,5S,6s)-6-((4-(2-aminopropan-2-yl)-6-(4-chlorophenyl)pyridin-2-yl)oxy)-3-azabicyclo[3.1.0]hexan-3-yl)(1-methyl-3-(pyrimidin-2-yl)-1H-pyrazol-5-yl)methanone] has an EC50 (RSV-A2-GFP virus; [1]) of less than 10 nM and an EC50 (hMPV-GFP virus; [2]) of 10 to 100 nM.
For Cn1nc(-c2ncccn2)cc1C(=O)N1C[C@@H]2[C@H](C1)[C@H]2Oc1cc(C(C)(C)N)cc(-c2ccc(C(F)(F)F)cc2)n1 [Example 59, ((1R,5S,6s)-6-((4-(2-aminopropan-2-yl)-6-(4-(trifluoromethyl)phenyl)pyridin-2-yl)oxy)-3-azabicyclo[3.1.0]hexan-3-yl)(1-methyl-3-(pyrimidin-2-yl)-1H-pyrazol-5-yl)methanone], the EC50 (RSV-A2-GFP virus; [1]) was less than 10 nM and the EC50 (hMPV-GFP virus; [2]) was 10 to 100 nM.
